# Where two headings read alike, the source gives them in different places.
# Experiments:
# Type in all cases: cell-based
# [1] = tested on: Staphylococcus aureus FDA 209P; assay: MIC against Staphylococcus aureus FDA 209P
# Excerpt: (§1) Below are described the antibacterial activities of the compounds in the compositions according to this invention.
# (§2) The testing method complied with the standard method of Japan Sociaty of Chemotherapy.
# [2] = tested on: Desulfovibrio desulfuricans IFO 13699; assay: MIC against Desulfovibrio desulfuricans
# Excerpt: as §1, §2
# Escherichia coli NIHJ = assay: MIC against Escherichia coli NIHJ
# Excerpt: as §1, §2
# [3] = Staphylococcus aureus, FDA209P, 24 h
# [4] = Desulfovibrio desulfuricans, IFO13699, 24 h
# [5] = Escherichia coli, Table 2, derivatives having a carboxylate radical, heart infusion agar, 37° C., 24 hours, read-out: MIC
# [6] = Escherichia coli, Table 1, azaalkenelactams, heart infusion agar, 37° C., 24 hours, read-out: MIC
# [7] = Table 2, derivatives having a carboxylate radical, heart infusion agar, 37° C., 24 hours
Compound,"MIC [1, 3] [µg/mL]","MIC [2, 4] [µg/mL]","MIC (Escherichia coli NIHJ; Escherichia coli, 24 h) [µg/mL]",further results
CCCCCCCC/C=C\CCCCCCCC(=O)NCCN1CC[N+](CC(=O)[O-])=C(C)CC1=O [4-oleamidoethyl-7-methyl-1-azonia-4-azacyclohept-7-en-5-one-1-acetate],25,12.5,,MIC (Escherichia coli NIHJ; [5]): 3200 µg/mL
CCCCCCCCCCCCNCCNCCNCCCN1CCC[N+](CC(=O)[O-])=C(C)CC1=O [1-dodecylaminoethylaminoethylaminopropyl-4-methyl-1-aza-5-azoniacyclooct-4-en-2-one-5-acetate],12.5,25,100,
CCCCCCCCCCCCCCC(O)CNCCN1CC[N+](CC(=O)[O-])=CCCC1=O (stereo not drawn) [4-(2-hydroxyhexadecyl)aminoethyl-4-aza-1-azoniacyclooct-8-en-5-one-1-acetate],12.5,6.25,100,
"CCCCCCCC(=O)NCCN1CCN=CCCC1=O [Example 56, 4-octamidoethyl-2,3,6,7-tetrahydro-1,4-diazocin-5-one]",200,50,100,
"CCCCCCCCCCCCCCCCCCNCCCN1CCCN=C(C)CC1=O [Example 37, 1-octadecylaminopropyl-4-methyl-3,6,7,8-tetrahydro-1,5-diazocin-2-one]",,,,MIC [1]: 6.25 µg/mL; MIC [2]: 6.25 µg/mL; MIC (Escherichia coli NIHJ): 25 µg/mL
CCCCCCCCCCCCCCCCCCCCCCNCCN1CC[N+](CC(=O)[O-])=C(C)CC1=O [4-docosylaminoethyl-7-methyl-1-azonia-4-azacyclohept-7-en-5-one-1-acetate],12.5,12.5,,MIC (Escherichia coli NIHJ; [5]): 3200 µg/mL
CCCCCCCCCCCC(=O)OCCN1CC[N+](CC(=O)[O-])=C(C)CC1=O [4-lauroyloxyethyl-7-methyl-1-azonia-4-azacyclohept-7-en-5-one-1-acetate],400,25,,MIC (Escherichia coli NIHJ; [5]): 3200 µg/mL
"CC1=NCCN(CCNC(=O)CCCCCCCCCCCCCCC(C)C)C(=O)C1 [Example 11, 4-isostearamidoethyl-7-methyl-3,6-dihydro-2H-1,4-diazepin-5-one]",100,6.25,,MIC (Escherichia coli NIHJ; [6]): 1600 µg/mL
"CCCCCCCCCCCCNCCNCCNCCCN1CCCN=C(C)CC1=O [Example 38, 1-dodecylaminoethylaminoethylaminopropyl-4-methyl-3,6,7,8-tetrahydro-1,5-diazocin-2-one]",12.5,25,50,
1-behenoyloxypropyl-4-methyl-1-aza-5-azoniacyclooct-4-en-2-one-5-acetate,,,,MIC [1]: 100 µg/mL; MIC [2]: 50 µg/mL; MIC (Escherichia coli NIHJ; [7]): 3200 µg/mL
1-behenoyloxypropyl-3-methyl-1-aza-5-azoniacyclooct-4-en-2-one-5-acetate,,,,MIC [1]: 50 µg/mL; MIC [2]: 25 µg/mL; MIC (Escherichia coli NIHJ): 100 µg/mL
CCCCCCCCCCCC(=O)NCCN1CC[N+](CC(=O)[O-])=CC(C)C1=O (stereo not drawn) [4-lauramidoethyl-6-methyl-1-azonia-4-azacyclohept-7-en-5-one-1-acetate],12.5,6.25,50,
"CCCCCCCCCCCCN1CCCN=CC(C)C1=O (stereo not drawn) [Example 44, 1-dodecyl-3-methyl-3,6,7,8-tetrahydro-1,5-diazocin-2-one]",50,25,,MIC (Escherichia coli NIHJ; [6]): 800 µg/mL
"4-behenoyloxypropyl-6-methyl-2,3,6,7-tetrahydro-1,4-diazocin-5-one [Example 68]",,,,MIC [1]: 100 µg/mL; MIC [2]: 25 µg/mL; MIC (Escherichia coli NIHJ): 200 µg/mL
1-hydroxyethyl-2-undecylimidazolineumbetaine [reference compound],,,,"MIC [1, 7]: 3600 µg/mL; MIC [2]: 400 µg/mL; MIC (Escherichia coli NIHJ; [7]): ≥ 10000 µg/mL"
CCCCCCCCCCCC(=O)OCCN1CCC[N+](CC(=O)[O-])=C(C)CC1=O [1-lauroyloxyethyl-4-methyl-1-aza-5-azoniacyclooct-4-en-2-one-5-acetate],400,25,,MIC (Escherichia coli NIHJ; [5]): 3200 µg/mL
"CCCCCCCCCCCCCCC(O)CNCCN1CC[N+](CC(=O)[O-])=CC(C)(C)C1=O (stereo not drawn) [4-(2-hydroxyhexadecyl)aminoethyl-6,6-dimethyl-1-azonia-4-azacyclohept-7-en-5-one-1-acetate]",12.5,6.25,200,

Compound,"MIC [1, 3] [µg/mL]","MIC [2, 4] [µg/mL]","MIC (Escherichia coli NIHJ; Escherichia coli, 24 h) [µg/mL]",further results
CCCCCCCCCCCCC(O)CNCCN1CC[N+](CC(=O)[O-])=C(C)CC1=O (stereo not drawn) [4-(2-hydroxytetradecyl)aminoethyl-7-methyl-1-azonia-4-azacyclohept-7-en-5-one-1-acetate],50,12.5,100,
CC1=[N+](CC(=O)[O-])CCN(CC(C)OCC(C)OCC(C)OCc2ccc(C)cc2)C(=O)C1 (stereo not drawn) [4-methylbenzylpoly(2 moles)oxypropyleneoxypropyl-7-methyl-1-azonia-4-azacyclohept-7-en-5-one-1-acetate],50,50,400,
"CCCCCCCCCCCC(=O)OCCN1CCN=C(C)CC1=O [Example 12, 4-lauroyloxyethyl-7-methyl-3,6-dihydro-2H-1,4-diazepin-5-one]",100,12.5,,MIC (Escherichia coli NIHJ; [6]): 1600 µg/mL
"CCCCCCCCOCCCN1CCN=CC(C)(C)C1=O [Example 63, 4-octoxypropyl-6,6-dimethyl-3-hydro-2H-1,4-diazepin-5-one]",100,50,400,
CCCCCCCCOCCCN1CC[N+](CC(=O)[O-])=C(C)CC1=O [4-octoxypropyl-7-methyl-1-azonia-4-azacyclohept-7-en-5-one-1-acetate],50,50,,MIC (Escherichia coli NIHJ; [5]): 1600 µg/mL
"CCCCCCCCOCCCN1CC[N+](CC(=O)[O-])=CC(C)(C)C1=O [4-oxtoxypropyl-6,6-dimethyl-1-azonia-4-azacyclohept-7-en-5-one-1-acetate]",200,50,,MIC (Escherichia coli NIHJ; [5]): 800 µg/mL
"CCCCCCCCCCC(O)CN1CCN=CC(C)C1=O (stereo not drawn) [Example 43, 4-(2-hydroxy)dodecyl-6-methyl-3,6-dihydro-2H-1,4-diazepin-5-one]",12.5,12.5,400,
1-coconutalkyl-4-methyl-1-aza-5-azoniacyclooct-4-en-2-one-5-acetate,,,,MIC [1]: 200 µg/mL; MIC [2]: 12.5 µg/mL; MIC (Escherichia coli NIHJ; [7]): 3200 µg/mL
"CCCCCCCCCCCC(=O)NCCN1CCN=CC(C)C1=O (stereo not drawn) [Example 46, 4-lauramidoethyl-6-methyl-3,6-dihydro-2H-1,4-diazepin-5-one]",6.25,6.25,25,
"CCCCCCCCC=CCCCCCCCCN1CCCN=C(C)CC1=O [Example 4, 1-(9-octadecenyl)-4-methyl-3,6,7,8-tetrahydro-1,5-diazocin-2-one]",25,12.5,,MIC (Escherichia coli NIHJ; [6]): 800 µg/mL
1-(2-hydroxyhexadecyl)aminoethyl-3-methyl-1-aza-5-azoniacyclooct-4-en-2-one-5-acetate,,,,MIC [1]: 12.5 µg/mL; MIC [2]: 6.25 µg/mL; MIC (Escherichia coli NIHJ): 100 µg/mL
1-(2-hydroxy)dodecyl-3-methyl-1-aza-5-azoniacyclooct-4-en-2-one-5-acetate,,,,MIC [1]: 100 µg/mL; MIC [2]: 50 µg/mL; MIC (Escherichia coli NIHJ; [7]): 1600 µg/mL
CCCCCCCC(=O)NCCN1CC[N+](C(C)C(=O)[O-])=CCCC1=O (stereo not drawn) [4-octamidoethyl-4-aza-1-azoniacyclooct-8-en-5-one-1-propionate],400,50,200,
"4-octoxy(2-hydroxy)propyl-7-methyl-3,6-dihydro-2H-1,4-diazepin-5-one [Example 31]",,,,MIC [1]: 50 µg/mL; MIC [2]: 50 µg/mL; MIC (Escherichia coli NIHJ): 400 µg/mL
"CCCCCCCCCCCCN1CCCN=C(C)CC1=O [Example 3, 1-dodecyl-4-methyl-3,6,7,8-tetrahydro-1,5-diazocin-2-one]",50,6.25,,MIC (Escherichia coli NIHJ; [6]): 1600 µg/mL
CCCCCCCCCCCCCCNCCN1CC[N+](C(C)C(=O)[O-])=CCC(C)C1=O (stereo not drawn),6.25,6.25,100,
CCCCCCCC(=O)OCCN1CC[N+](CC(=O)[O-])=C(C)CC1=O [4-octoyloxyethyl-7-methyl-1-azonia-4-azacyclohept-7-en-5-one-1-acetate],,50,,"MIC ([1]; Staphylococcus aureus, FDA209P, Table 2, derivatives having a carboxylate radical, heart infusion agar, 37° C., 24 hours, read-out: MIC): 800 µg/mL; MIC (Escherichia coli NIHJ; [5]): 3200 µg/mL"

# From patent US4346087A, “Antibacterial surface active agent containing azaalkenelactam” (priority 1979, dated 1982)
